Non-standard residues stand in square brackets, D forms with d. Residues, ends and D or L forms follow the SMILES beside them. Arg(NO2) = N=C(NCCC[C@H](N)C(=O)O)N[N+](=O)[O-]; Dab = NCC[C@H](N)C(=O)O
System: SAICAR synthetase
Experiment: Inhibition of SAICAR accumulation, biochemical enzyme activity experiments and cell biology experiments
Source text: On the basis of the above results, the crystal structure conformations in SAICAR synthetases of Saccharomyces cerevisiae (PDB: 2CNQ) and Escherichia coli (PDB: 2GQS) are used as receptor structures for calculating and screening, since there is no conformation which can bind CAIR in human PAICS crystal structure, and no catalytic conformation formed in the catalytic region, and the results obtained by calculation are not reliable. 4661 of small molecule drugs in the DrugBank (www.drugbank.ca) are calculated and screened by using the ligand fit module of Discovery studio. The conformations are ordered according to dock scores, and then the first 500 conformations are selected. After eliminating the repetitions, key screening results are obtained. In addition, the inhibition ratios of the compounds against SAICAR accumulation are confirmed by biochemical enzyme activity experiments and cell biology experiments, as shown in Table 1.

Row | Compound | Inhibition ratios against SAICAR accumulation
1 | N[C@@H](CCC(=O)N[C@@H](CSCc1ccc([N+](=O)[O-])cc1)C(=O)NCC(=O)O)C(=O)O [D1303686, S-(P-Nitrobenzyl)Glutathione] | 63.83%
2 | NC[C@H]1O[C@H](O[C@H]2[C@H](O)[C@@H](O)[C@H](N)C[C@@H]2N)[C@H](N)[C@@H](O)[C@@H]1O [D1304808, Neamine] | 37.11%
3 | N[C@@H](Cc1cc(N=Nc2ccccn2)c(O)cc1O)C(=O)O [DB01634, 2-Oxy-4-Hydroxy-5-(2-Hydrazinopyridine)Phenylalanine] | 23.7%
4 | NC(CC1=CC(=NC2CC2c2ccccc2)C(O)=CC1=O)C(=O)O (stereo not drawn) [DB01657, 2-Amino-3-[4-Hydroxy-6-Oxo-3-(2-Phenyl-Cyclopropylimino)-Cyclohexa-1,4-Dienyl]-Propionic acid] | 22.9%
5 | Cc1ncc(COP(=O)(O)O)c(CN[C@@H](CCC(=O)O)C(=O)O)c1O [DB01813, Pyridoxyl-Glutamic Acid-5′-Monophosphate] | 40.9%
6 | N[C@@H](CCCCNC(C(=O)O)C(=O)O)C(=O)O [DB01815, Nz-(Dicarboxymethyl)Lysine] | 22.68%
7 | NCC[C@H](NC(=O)[C@@H](N)CCCN=C(N)N[N+](=O)[O-])C(N)=O [DB01821, L-N(Omega)-Nitroarginine-2,4-L-Diaminobutyric Amide] (H-[Arg(NO2)]-[Dab]-NH2) | 57.11%
8 | Nc1ncnc2c1ncn2[C@@H]1O[C@H](COP(=O)(O)OC(=O)[C@@H](N)CC(=O)O)[C@@H](O)[C@H]1O [DB01895, Aspartyl-Adenosine-5′-Monophosphate] | 22.918%
9 | NC(CSC1C=C(C(N)C(=O)O)ON1)C(=O)O (stereo not drawn) [DB01974, 2-Amino-3-[5-(Amino-Carboxy-Methyl)-2,3-Dihydro-Isoxazol-3-Ylsulfanyl]-Propionic Acid] | 66.711%
10 | NCCC[C@H](NC(=O)CP(=O)(O)O)C(=O)O [DB02011, N-(phosphonoacetyl)-L-Ornithine] | 41.85%
11 | O=c1[nH]cnc2c([C@@H]3N[C@H](COP(=O)(O)O)[C@@H](O)[C@H]3O)c[nH]c12 [DB02075, (1s)-1-(9-Deazahypoxanthin-9-yl)-1,4-Di Deoxy-1,4-Imino-D-Ribitol-5-Phosphate] | 28.5%
12 | NC(=O)[C@@H]1C[C@@H](NC(=O)[C@@H](N)CCCN=C(N)N[N+](=O)[O-])CN1 [DB02077, L-N(Omega)-Nitroarginine-(4r)-Amino-L-Proline Amide] | 71.8%
13 | NC(=NCCCC(N)C(=O)O)NC(CC(=O)O)C(=O)O (stereo not drawn) [DB02267, Argininosuccinate] | 86.81%
14 | OCC(OS(O)(O)O)[C@H](O)CN1C[C@@H](O)[C@H](O)[C@H]1CO (stereo partly drawn) [DB02492, Ghavamiol] | 17.4%
15 | Cc1ccc(OCC(=CC=O)Nc2cc(C[C@H](N)C(=O)O)c(O)cc2O)cc1 [DB02537, 2 -Hydroxy-5-({1-[(4-Methylphenoxy)Methyl]-3-Oxoprop-1-Enyl}Amino)-L-Tyrosin] | 71.1%
16 | Cc1ncc(COP(=O)(O)O)c(CNCC(=O)O)c1O [DB02824, N-Pyridoxyl-Glycine-5-Monophosphate] | 77.97%
17 | CC(N)C(CCCCCC(=O)O)NC(=O)OP(=O)(O)O (stereo not drawn) [DB02927, Mixed Carbamic Phosphoric Acid Anhydride of 7,8-Diaminononanic acid] | 22.8%
18 | CC(N)C(CCCCCC(=O)O)CC(=O)O (stereo not drawn) [DB02941, 3-(1-Aminoethyl)Nonanedioic Acid] | 69.8%
19 | N[C@@H](CCC(=O)N[C@@H](CS(=O)(=O)O)C(=O)NCC(=O)O)C(=O)O [DB03003, Glutathione Sulfonic acid] | 38%
20 | C=C[C@@H](NC(=O)[C@H](CS)NC(=O)CCC[C@H](N)C(=O)O)C(=O)O [DB03427, Delta-(L-Alpha-Aminoadipoyl)-L-Cysteinyl-D-Vinylglycine] | 13.3%

Row | Compound | Inhibition ratios against SAICAR accumulation
21 | Cc1ncc(COP(=O)(O)O)c(CNC(C(C)C)P(=O)(O)O)c1O (stereo not drawn) [DB03433, {[(3-Hydroxy-2-Methyl-5-Phosphonooxymethyl-Pyridin-4-ylmethyl)-Amino]-2-Methyl-Propyl}-Phosphonic Acid] | 53.38%
22 | NCCCCNCCCN [DB03566, Spermidine] | 68.98%
23 | NCCC[C@H](NC(=O)CCC(=O)O)C(=O)O [DB03582, N-2-Succinylornithine] | 19.97%
24 | N[C@@H](CCC(=O)N[C@@H](CSCc1ccccc1)C(=O)NCC(=O)O)C(=O)O [DB03602, S-Benzyl-Glutathione] | 36.5%
25 | CC(N)C(CCCCCC(=O)O)NC(=O)O (stereo not drawn) [DB03624, 7-(Carboxyamino)-8-Amino-Nonanoic Acid] | 51.9%
26 | C[C@@H](NC(=O)CCCC[C@H](NC(=O)CN)C(=O)O)C(=O)O [DB03927, Glycyl-L-Alpha-Amino-Epsilon-Pimelyl-D-Alanine] | 29.859%
27 | N[C@@H](CCC(=O)N[C@@H](CSCO)C(=O)NCC(=O)O)C(=O)O [DB04153, S-Hydroxymethyl Glutathione] | 58%
28 | NC(CCCCN[C@@H](CCC(=O)O)C(=O)O)C(=O)O (stereo partly drawn) [DB04207, N-(5-Amino-5-Carboxypentyl)-Glutamic Acid] | 65.69%
29 | N[C@@H](CSC1CC(CC(=O)O)ON1N)C(=O)O (stereo partly drawn) [DB04323, 2-Amino-3-(Cystein-S-Yl)-Isoxazolidin-5-Yl-Acetic acid] | 56.68%
30 | N[C@@H](CCC(=O)N[C@@H](CSCc1cccc(I)c1)C(=O)NCC(=O)O)C(=O)O [DB04341, S-(3-Iodobenzyl)Glutathione] | 9.9%
31 | Cc1cccc(C2=C(c3ccc4ncccc4n3)CNN2)n1 [DB04434, Naphthyridine Inhibitor] | 22.98%
32 | CN(C)c1ncnc2c1ncn2[C@@H]1O[C@H](COP(=O)(O)O)[C@@H](N)[C@H]1O [DB04602, PUROMYCIN AMINONUCLEOSIDE-5′-MONOPHOSPHATE] | 12.9%
33 | CN(CC[C@H](N)CC(=O)N[C@H]1C=C[C@H](N2C=C[C@@](N)(O)NC2=O)O[C@@H]1C(=O)O)C(=N)N [DB04649, TETRAHEDRAL INTERMEDIATE OF BLASTICIDIN S] | 20.09%
34 | NCCCCCCNCCCCCCN [DB04684, BIS(HEXAMETHYLENE)TRIAMINE] | 9.3%
35 | N[C@@H](CCC(=O)N[C@@H](CS(=O)O)C(=O)NCC(=O)O)C(=O)O [DB04700, GLUTATHIONE SULFINATE] | 9.98%
36 | CSC[C@H](NC(=O)CC[C@H](N)C(=O)O)C(=O)NCC(=O)O [DB04701, S-METHYL-GLUTATHIONE] | 40.1%
37 | Cc1ncc(COP(=O)(O)O)c(CN[C@H](CCC(=O)O)C(=O)O)c1O [DB04762, N-PYRIDOXYL-D-GLUTAMIC ACID-5′-MONOPHOSPHATE] | 27.7%
38 | C[C@H](NC(=NCC(=O)O)Nc1ccc(C#N)cc1)c1ccccc1 [DB04778, SC45647] | 11.29%
39 | N-ethyl-N[3-(propylamino)propyl]propane-1,3-diamine [DB04633] | 12.798%

— patent US11766412B2, “Methods of treating or alleviating adenylosuccinatelyase (ADSL) deficiency using spermidine or a pharmaceutically acceptable salt of spermidine” (GENEHEAL BIOTECHNOLOGY CO., LTD., priority 2016, dated 2023)
